Data: patent publication EP1388586A2, “Identification of broadly reactive DR restricted epitopes” (priority 1998, dated 1999)

What follows are molecules tested on panel of purified HLA DR molecules. Settings: not given.
Assay type: binding, human
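Also: competitive inhibition of radiolabeled probe peptide binding to purified HLA DR molecules, with inhibitory potency of unlabeled peptides taken as an approximation of affinity.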

| SMILES | Total Alleles Bound | total of DR molecules bound |
| --- | --- | --- |
| CC[C@H](C)[C@H](NC(=O)[C@H](CO)NC(=O)[C@H](CO)NC(=O)[C@H](CC(N)=O)NC(=O)[C@@H](NC(=O)[C@@H](NC(=O)[C@H](CC(N)=O)NC(=O)[C@H](Cc1ccccc1)NC(=O)[C@@H](NC(=O)[C@H](CO)NC(=O)[C@@H](N)CO)C(C)C)C(C)C)C(C)C)C(=O)NCC(=O)N[C@@H](CC(C)C)C(=O)N[C@H](C(=O)N[C@@H](CCSC)C(=O)O)[C@@H](C)CC [Peptide 27.392] | 6 | – |
| CC[C@H](C)[C@H](NC(=O)[C@H](CC(C)C)NC(=O)[C@H](Cc1ccccc1)NC(=O)[C@@H](NC(=O)[C@@H](NC(=O)[C@@H](NC(=O)[C@H](CC(C)C)NC(=O)[C@H](Cc1ccc(O)cc1)NC(=O)[C@H](CCCCN)NC(=O)[C@@H](NC(=O)[C@@H](N)CC(N)=O)C(C)C)C(C)C)[C@@H](C)CC)C(C)C)C(=O)N[C@@H](Cc1ccccc1)C(=O)N[C@@H](Cc1ccccc1)C(=O)N[C@@H](CC(=O)O)C(=O)N[C@@H](CC(C)C)C(=O)O [Peptide 27.415] | 2 | – |
| CC[C@H](C)[C@H](NC(=O)[C@@H](NC(=O)[C@H](CC(N)=O)NC(=O)[C@H](CCCCN)NC(=O)[C@@H](N)C(C)C)C(C)C)C(=O)NCC(=O)N1CCC[C@H]1C(=O)N[C@@H](Cc1ccccc1)C(=O)N[C@@H](CCSC)C(=O)N[C@@H](CCCCN)C(=O)N[C@@H](C)C(=O)N[C@H](C(=O)N[C@@H](CS)C(=O)N[C@H](C(=O)N[C@@H](CCC(=O)O)C(=O)O)C(C)C)C(C)C [Peptide 27.417] | 6 | – |
| CC[C@H](C)[C@H](N)C(=O)N[C@@H](CCCCN)C(=O)N[C@@H](CC(C)C)C(=O)N1CCC[C@H]1C(=O)N[C@H](C(=O)N[C@H](C(=O)N[C@@H](CC(C)C)C(=O)N[C@@H](C)C(=O)N[C@@H](Cc1ccccc1)C(=O)N[C@@H](C)C(=O)N[C@H](C(=O)N[C@@H](CS)C(=O)N[C@@H](Cc1ccccc1)C(=O)N[C@@H](CC(C)C)C(=O)N[C@H](C(=O)N1CCC[C@H]1C(=O)O)[C@@H](C)CC)[C@@H](C)O)[C@@H](C)CC)[C@@H](C)CC [Peptide 1136.12] | 4 | – |
| CC(C)C[C@H](NC(=O)[C@H](Cc1c[nH]c2ccccc12)NC(=O)[C@@H](NC(=O)[C@H](Cc1ccccc1)NC(=O)[C@@H](NC(=O)[C@@H]1CCCN1C(=O)[C@H](CC(C)C)NC(=O)[C@H](C)NC(=O)[C@@H]1CCCN1C(=O)[C@H](CC(C)C)NC(=O)[C@H](Cc1ccccc1)NC(=O)[C@H](Cc1ccccc1)NC(=O)[C@H](CCC(N)=O)NC(=O)[C@H](CO)NC(=O)[C@@H](NC(=O)[C@@H](N)CC(C)C)[C@@H](C)O)C(C)C)[C@@H](C)O)C(=O)O [Peptide 1136.16] | 7 | – |
| CC[C@H](C)[C@H](NC(=O)[C@H](CC(=O)O)NC(=O)[C@H](CC(C)C)NC(=O)[C@@H](NC(=O)CNC(=O)[C@@H](NC(=O)[C@@H](NC(=O)[C@@H](NC(=O)[C@@H](NC(=O)[C@H](C)NC(=O)[C@H](CC(C)C)NC(=O)[C@@H](NC(=O)[C@H](CC(N)=O)NC(=O)[C@H](CO)NC(=O)[C@H](CC(C)C)NC(=O)[C@@H](N)CC(N)=O)C(C)C)[C@@H](C)O)[C@@H](C)CC)[C@@H](C)O)[C@@H](C)O)C(C)C)C(=O)O [Peptide 1136.24] | 4 | – |
| CC[C@H](C)[C@H](NC(=O)[C@H](CC(C)C)NC(=O)[C@H](CC(=O)O)NC(=O)[C@@H](NC(=O)[C@H](Cc1ccccc1)NC(=O)[C@H](Cc1ccc(O)cc1)NC(=O)[C@H](Cc1c[nH]cn1)NC(=O)[C@H](Cc1c[nH]cn1)NC(=O)[C@@H](N)[C@@H](C)O)C(C)C)C(=O)NCC(=O)NCC(=O)N[C@@H](C)C(=O)N[C@@H](CCSC)C(=O)N[C@@H](CC(C)C)C(=O)N[C@@H](CO)C(=O)N[C@@H](CC(C)C)C(=O)O [Peptide 1136.47] | 4 | – |
| CC(C)[C@H](NC(=O)[C@H](CO)NC(=O)[C@@H](NC(=O)[C@H](C)NC(=O)[C@H](CO)NC(=O)[C@H](CO)NC(=O)[C@H](C)NC(=O)[C@H](C)NC(=O)[C@H](Cc1ccc(O)cc1)NC(=O)[C@@H](NC(=O)[C@H](CO)NC(=O)CNC(=O)[C@H](CCC(N)=O)NC(=O)[C@@H]1CCCN1C(=O)[C@@H](N)CCC(=O)O)[C@@H](C)O)[C@@H](C)O)C(=O)N[C@@H](CC(=O)O)C(=O)O [Peptide 1136.71] | 5 | – |
| CC(C)C[C@H](NC(=O)CNC(=O)[C@H](C)N)C(=O)N[C@@H](CC(C)C)C(=O)NCC(=O)N[C@@H](CC(N)=O)C(=O)N[C@H](C(=O)N[C@@H](CO)C(=O)N[C@H](C(=O)N[C@H](C(=O)N[C@@H](CC(C)C)C(=O)N[C@@H](CC(C)C)C(=O)NCC(=O)NCC(=O)N[C@H](C(=O)O)C(C)C)C(C)C)[C@@H](C)O)C(C)C [Peptide 1188.13] | 4 | – |
| CC(C)C[C@H](NC(=O)CN)C(=O)N[C@@H](C)C(=O)N[C@@H](Cc1ccc(O)cc1)C(=O)N[C@@H](CCCCN)C(=O)N[C@@H](Cc1ccccc1)C(=O)N[C@H](C(=O)N[C@H](C(=O)N1CCC[C@H]1C(=O)NCC(=O)N[C@@H](C)C(=O)N[C@@H](C)C(=O)N[C@H](C(=O)N1CCC[C@H]1C(=O)N[C@@H](Cc1ccc(O)cc1)C(=O)O)[C@@H](C)O)C(C)C)C(C)C [Peptide 1188.32] | – | nine |
| CC[C@H](C)[C@H](NC(=O)[C@H](CC(C)C)NC(=O)[C@H](CCCCN)NC(=O)[C@H](CCSC)NC(=O)[C@H](C)NC(=O)[C@H](CC(C)C)NC(=O)[C@@H]1CCCN1C(=O)[C@@H](NC(=O)[C@H](C)NC(=O)[C@H](Cc1c[nH]cn1)NC(=O)[C@H](CC(N)=O)NC(=O)[C@@H](NC(=O)[C@H](Cc1c[nH]c2ccccc12)NC(=O)[C@H](CC(N)=O)NC(=O)[C@@H](N)Cc1c[nH]cn1)C(C)C)C(C)C)C(=O)O [Peptide 1188.34] | 9 | nine |

Same assay, conditions: Table V B) Correct Predictions; 12 DR molecules listed

| SMILES | Total Alleles Bound |
| --- | --- |
| CC(C)C[C@H](NC(=O)CNC(=O)[C@H](C)NC(=O)[C@H](CC(C)C)NC(=O)[C@@H](NC(=O)[C@H](CO)NC(=O)[C@@H](NC(=O)[C@H](C)NC(=O)[C@H](CC(C)C)NC(=O)[C@H](CCCCN)NC(=O)[C@H](Cc1ccc(O)cc1)NC(=O)[C@@H](N)CCCCN)[C@@H](C)O)C(C)C)C(=O)N[C@@H](CC(C)C)C(=O)NCC(=O)N[C@@H](CC(N)=O)C(=O)O [Peptide F107.09] | 9 |
| CC(C)C[C@H](NC(=O)CNC(=O)[C@H](C)NC(=O)[C@@H](N)CC(C)C)C(=O)N[C@@H](CC(C)C)C(=O)NCC(=O)N[C@@H](CC(N)=O)C(=O)N[C@H](C(=O)N[C@@H](CO)C(=O)N[C@H](C(=O)N[C@H](C(=O)N[C@@H](CC(C)C)C(=O)N[C@@H](CC(C)C)C(=O)NCC(=O)NCC(=O)O)C(C)C)[C@@H](C)O)C(C)C [Peptide F107.10] | 4 |
| CC(C)[C@H](NC(=O)[C@H](Cc1ccccc1)NC(=O)[C@@H](N)CCCCN)C(=O)N[C@H](C(=O)N1CCC[C@H]1C(=O)NCC(=O)N[C@@H](C)C(=O)N[C@@H](C)C(=O)N[C@H](C(=O)N1CCC[C@H]1C(=O)N[C@@H](Cc1ccc(O)cc1)C(=O)N[C@@H](C)C(=O)NCC(=O)N[C@@H](CCC(=O)O)C(=O)N1CCC[C@H]1C(=O)O)[C@@H](C)O)C(C)C [Peptide F107.17] | 4 |
| CC[C@H](C)[C@H](NC(=O)[C@H](CO)NC(=O)[C@H](CO)NC(=O)[C@H](CC(N)=O)NC(=O)[C@@H](NC(=O)[C@@H](NC(=O)[C@H](CC(N)=O)NC(=O)[C@H](Cc1ccccc1)NC(=O)[C@@H](N)C(C)C)C(C)C)C(C)C)C(=O)NCC(=O)N[C@@H](CC(C)C)C(=O)N[C@H](C(=O)N[C@@H](CCSC)C(=O)N[C@H](C(=O)N[C@@H](CC(C)C)C(=O)O)C(C)C)[C@@H](C)CC [Peptide F107.23] | 4 |

Same assay, conditions: correct predictions; out of the 11 DR molecules tested

| SMILES | total of DR molecules bound |
| --- | --- |
| CC(C)C[C@H](NC(=O)CNC(=O)[C@H](C)NC(=O)[C@H](CC(C)C)NC(=O)[C@@H](NC(=O)[C@H](CO)NC(=O)[C@@H](NC(=O)[C@H](C)NC(=O)[C@H](CC(C)C)NC(=O)[C@H](CCCCN)NC(=O)[C@H](Cc1ccc(O)cc1)NC(=O)[C@@H](N)CCCCN)[C@@H](C)O)C(C)C)C(=O)N[C@@H](CC(C)C)C(=O)NCC(=O)N[C@@H](CC(N)=O)C(=O)O [Peptide F107.09] | nine |
